Data on twelve compounds can be found in patent US9751837B2, “Kinase inhibitors” (RESPIVERT LIMITED, priority 2014, dated 2017).

Structures are written as SMILES. In brackets after ≈: the same amount, converted by molar mass.

A short description of data set [1]: Solubility in fasted-state simulated colonic fluid (FaSSCoF) at pH 6.5. It is filed as physicochemical. The settings on record: 25 °C, pH 6.5, fassgf or other biorelevant, thermodynamic from solid. The procedure, abridged:
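Compounds were suspended at up to 2-10 mg/mL in pH 6.5 Tris/maleate FaSSCoF containing a five-bile-acid mixture, phosphatidylcholine, palmitic acid and BSA. After 24 h equilibration at 25° C the suspension was filtered and the filtrate quantified by HPLC peak area against a standard.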

For the next data set, the target named is GSK 3α (Homo sapiens (Human), UniProt P49840). Nature of the data set: GSK 3α enzyme inhibition (Method 2), Z-LYTE FRET. In kind it is biochemical. The settings on record: read-out: IC50 Values for Enzyme Inhibition GSK3α. As to the method:
The enzyme inhibitory activities of compounds disclosed herein are determined by FRET using synthetic peptides labelled with both donor and acceptor fluorophores (Z-LYTE, Invitrogen Ltd., Paisley, UK).
The following two assay variants can be used for determination of GSK 3α inhibition.
The inhibitory activities of compounds of the invention against the GSK 3α enzyme isoform (Invitrogen), are evaluated by determining the level of activation/phosphorylation of the target peptide. The GSK3-α protein (500 ng/mL, 2.5 μL) is mixed with the test compound (2.5 μL at either 4 μg/mL, 0.4 μg/mL, 0.04 μg/mL, or 0.004 μg/mL) for 2 hr at RT. The FRET peptide (8 μM, 2.5 μL), which is a phosphorylation target for GSK3α, and ATP (40 μM, 2.5 μL) are then added to the enzyme/compound mixture and the resulting mixture incubated for 1 hr. Development reagent (protease, 5 μL) is added for 1 hr prior to detection in a fluorescence microplate reader (Varioskan® Flash, ThermoFisher Scientific).
In all cases, the site-specific protease cleaves non-phosphorylated peptide only and eliminates the FRET signal. Phosphorylation levels of each reaction are calculated using the ratio of coumarin emission (donor) over fluorescein emission (acceptor), for which high ratios indicate high phosphorylation and low ratios indicate low phosphorylation levels.
This method follows the same steps as Method 1 above, but utilises a shorter period of mixing of the test compound (105 minutes instead of 2 hours) with the GSK3-α protein. In addition, the concentrations of test compound employed are either 10 μg/mL, 1 μg/mL, 0.1 μg/mL, or 0.01 μg/mL

[2] abbreviates: pH 6.5 FaSSCoF Solubility (mg/mL) Run 1.
Where [3] appears, read: pH 6.5 FaSSCoF Solubility (mg/mL) Run 2.

Chain of GSK 3α (P49840 whole entry): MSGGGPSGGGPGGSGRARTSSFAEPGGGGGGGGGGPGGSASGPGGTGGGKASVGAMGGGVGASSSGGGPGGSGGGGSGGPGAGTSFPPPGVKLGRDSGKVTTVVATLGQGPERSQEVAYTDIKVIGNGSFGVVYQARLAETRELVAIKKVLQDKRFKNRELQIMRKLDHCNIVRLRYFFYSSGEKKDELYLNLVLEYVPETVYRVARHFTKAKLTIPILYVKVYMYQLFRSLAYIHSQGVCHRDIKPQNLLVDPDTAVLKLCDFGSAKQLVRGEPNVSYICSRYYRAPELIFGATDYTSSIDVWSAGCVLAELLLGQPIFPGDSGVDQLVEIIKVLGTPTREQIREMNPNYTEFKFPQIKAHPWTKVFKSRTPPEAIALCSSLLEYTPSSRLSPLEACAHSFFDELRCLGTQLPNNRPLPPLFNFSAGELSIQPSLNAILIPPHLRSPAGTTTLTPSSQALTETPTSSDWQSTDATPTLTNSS

For the compound `COc1cc(Nc2cc(Oc3ccc(NC(=O)Nc4cc(C(C)(C)C)cc(NS(C)(=O)=O)c4OC)c4ccccc34)ccn2)cc(OC)c1C(=O)NCCN1CCOCC1` [17(ae), 4-[[4-[[4-[[5-tert-butyl-3-(methanesulfonamido)-2-methoxy-phenyl]carbamoylamino]-1-naphthyl]oxy]-2-pyridyl]amino]-2,6-dimethoxy-N-(2-morpholinoethyl)benzamide], the solubility (thermodynamic) at 24 h is 11 µg/mL (≈ 13.1 µM) in data set [1] (setting [2]) and 12 µg/mL (≈ 14.3 µM) in data set [1] (setting [3]). The IC50 on GSK 3α stood at 3 µM.
Turning to `COc1cc(Nc2cc(Oc3ccc(NC(=O)Nc4cc(C(C)(C)C)cc(NS(C)(=O)=O)c4OC)c4ccccc34)ccn2)ccc1C(=O)N(C)CCCN1CCOCC1` [17(af), 4-[[4-[[4-[[5-tert-butyl-3-(methanesulfonamido)-2-methoxy-phenyl]carbamoylamino]-1-naphthyl]oxy]-2-pyridyl]amino]-2-methoxy-N-methyl-N-(3-morpholinopropyl)benzamide], the solubility (thermodynamic) at 24 h in data set [1] (setting [2]) and in data set [1] (setting [3]) was 10 µg/mL (≈ 11.9 µM) in each case. Also, the IC50 on GSK 3α turned out to be 0.68 µM.
As to `COc1cc(Nc2cc(Oc3ccc(NC(=O)Nc4cc(C(C)(C)C)cc(NS(C)(=O)=O)c4OC)c4ccccc34)ccn2)ccc1C(=O)NCCCN1CCOCC1` [17(b), 4-[[4-[[4-[[5-tert-butyl-3-(methanesulfonamido)-2-methoxy-phenyl]carbamoylamino]-1-naphthyl]oxy]-2-pyridyl]amino]-2-methoxy-N-(3-morpholinopropyl)benzamide], the solubility (thermodynamic) at 24 h in data set [1] (setting [2]) and in data set [1] (setting [3]) was 15 µg/mL (≈ 18.2 µM) throughout. The IC50 on GSK 3α is 4.49 µM.
Turning to `COc1cc(Nc2cc(Oc3ccc(NC(=O)Nc4cc(C(C)(C)C)cc(NS(C)(=O)=O)c4OC)c4ccccc34)ccn2)ccc1C(=O)N[C@@H](C)CN1CCOCC1` [17(v), 4-[[4-[[4-[[5-tert-butyl-3-(methanesulfonamido)-2-methoxy-phenyl]carbamoylamino]-1-naphthyl]oxy]-2-pyridyl]amino]-2-methoxy-N-[(1S)-1-methyl-2-morpholino-ethyl]benzamide], the thermodynamic solubility at 24 h in data set [1] (setting [2]) and in data set [1] (setting [3]) was 8 µg/mL (≈ 9.69 µM) throughout. The IC50 on GSK 3α is greater than 12.1 µM.
Regarding `COc1cc(Nc2cc(Oc3ccc(NC(=O)Nc4cc(C(C)(C)C)cc(NS(C)(=O)=O)c4OC)c4ccccc34)ccn2)ccc1C(=O)NCCOCCOCCC(=O)O` [17(x), 3-[2-[2-[[4-[[4-[[4-[[5-tert-butyl-3-(methanesulfonamido)-2-methoxyphenyl]carbamoyl-amino]-1-naphthyl]oxy]-2-pyridyl]amino]-2-methoxy-benzoyl]amino]ethoxy]ethoxy]propanoic acid], the solubility (thermodynamic) at 24 h in data set [1] (setting [2]) was 15 µg/mL (≈ 17.5 µM); in data set [1] (setting [3]), 9 µg/mL (≈ 10.5 µM). On GSK 3α, the IC50 came to 0.412 µM.
In the case of `COc1cc(Nc2cc(Oc3ccc(NC(=O)Nc4cc(C(C)(C)C)cc(C(N)=O)c4OC)c4ccccc34)ccn2)ccc1C(=O)O` [Example 3, 4-((4-((4-(3-(5-(tert-Butyl)-3-carbamoyl-2-methoxyphenyl)ureido)naphthalen-1-yl)oxy)pyridin-2-yl)amino)-2-methoxybenzoic acid], the thermodynamic solubility at 24 h in data set [1] (setting [2]) and in data set [1] (setting [3]) was 6 µg/mL (≈ 9.23 µM) throughout. In addition, the IC50 on GSK 3α was 0.139 µM.
Regarding `COc1c(NC(=O)Nc2ccc(Oc3ccnc(Nc4ccc(OCCN5CCOCC5)c(C#N)c4)c3)c3ccccc23)cc(C(C)(C)C)cc1NS(C)(=O)=O` [Example 9, N-(5-(tert-Butyl)-3-(3-(4-((2-((3-cyano-4-(2-morpholinoethoxy)phenyl)amino)pyridin-4-yl)oxy)naphthalen-1-yl)ureido)-2-methoxyphenyl)methanesulfonamide], the IC50 at GSK 3α turned out to be 4.34 µM.
For the compound `COc1c(NC(=O)Nc2ccc(Oc3ccnc(Nc4ccc(OCCCN5CCOCC5)c(C#N)c4)c3)c3ccccc23)cc(C(C)(C)C)cc1NS(C)(=O)=O` [Example 10, N-(5-(tert-Butyl)-3-(3-(4-((2-((3-cyano-4-(3-morpholinopropxy)phenyl)amino)pyridin-4-yl)oxy)naphthalen-1-yl)ureido)-2-methoxyphenyl)methanesulfonamide], the IC50 at GSK 3α amounted to 5.56 µM.
On to `COCCOCCOCC[S+]([O-])c1ccc(Nc2cc(Oc3ccc(NC(=O)Nc4cc(C(C)(C)C)cc(NS(C)(=O)=O)c4OC)c4ccccc34)ccn2)cc1OC` (stereo not drawn) [Example 11, N-(5-(tert-Butyl)-2-methoxy-3-(3-(4-((2-((3-methoxy-4-((2-(2-(2-methoxyethoxy)ethoxy)ethyl)sulfinyl)phenyl)amino)pyridin-4-yl)oxy)naphthalen-1-yl)ureido)phenyl)methanesulfonamide], for which, at GSK 3α, the IC50 is 1.3 µM.
In the case of `COCCOCCOCCS(=O)(=O)c1ccc(Nc2cc(Oc3ccc(NC(=O)Nc4cc(C(C)(C)C)cc(NS(C)(=O)=O)c4OC)c4ccccc34)ccn2)cc1OC` [Example 12, 1-[5-tert-Butyl-3-(methanesulfonamido)-2-methoxy-phenyl]-3-[4-[[2-[3-methoxy-4-[2-[2-(2-methoxyethoxy)ethoxy]ethylsulfonyl]anilino]-4-pyridyl]oxy]-1-naphthyl]urea], the 50% inhibitory concentration (IC50) at GSK 3α worked out at 2.14 µM.
Consider `COc1cc(Nc2cc(Oc3ccc(NC(=O)Nc4cc(C(C)(C)C)cc(NS(C)(=O)=O)c4OC)c4ccccc34)ccn2)ccc1S(=O)(=O)N(C)CCCN1CCOCC1` [Example 13, 1-[5-tert-Butyl-3-(methanesulfonamido)-2-methoxy-phenyl]-3-[4-[[2-[3-methoxy-4-[methyl(3-morpholinopropyl)sulfamoyl]anilino]-4-pyridyl]oxy]-1-naphthyl]urea], for which the IC50 at GSK 3α worked out at 3.63 µM.
On the same count and under the same terms, the result for `COc1cc(Nc2cc(Oc3ccc(NC(=O)Nc4cc(C(C)(C)C)cc(NS(C)(=O)=O)c4OC)c4ccccc34)ccn2)cc(OC)c1C(=O)O` [Example 46, 4-[[4-[[4-[[5-tert-Butyl-3-(methanesulfonamido)-2-methoxyphenyl]carbamoylamino]-1-naphthyl]oxy]-2-pyridyl]amino]-2,6-dimethoxybenzoic acid] reads 0.225 µM.
